Measurements reported in US10351575B2, “Bicyclic urea, thiourea, guanidine and cyanoguanidine compounds useful for the treatment of pain” (Array BioPharma Inc., priority 2012, dated 2019).

molecular target: His-tagged recombinant human TrkA (Homo sapiens (Human), UniProt P04629); assay: TrkA LanthaScreen Eu Kinase Binding Assay; details: averaged IC50; TR-FRET binding, 60 min, 22° C.; read-out: TrkA Enzyme IC50
Description: TrkA binding activity was determined in a TrkA LanthaScreen™ Eu Kinase Binding Assay. 5 nM His-tagged recombinant human TrkA (6HIS tagged cytoplasmic domain from Invitrogen, Catalog No. PV3144) was incubated with 4 nM Alexa-Fluor® Tracer 236 (Invitrogen Cat. No. PV5592), 2 nM biotinylated anti-His (Invitrogen Cat. No. PV6090), and 2 nM europium-labeled Streptavidin (Invitrogen Cat. No. PV5899), in buffer (25 mM MOPS, pH 7.5, 5 mM MgCl2, 0.005% Triton X-100). Three fold serial dilutions of compounds of the invention in DMSO were added to a final percentage of 2% DMSO. After 60-minute incubation at 22° C., the reaction was measured using the EnVision mutlimode plate reader (PerkinElmer) via TR-FRET dual wavelength detection at […]. The percent of control was calculated using a ratiometric emission factor. The IC50 values were determined by fitting a four parameter model to the percent of control data.

Sequence of His-tagged recombinant human TrkA (P04629 440-796): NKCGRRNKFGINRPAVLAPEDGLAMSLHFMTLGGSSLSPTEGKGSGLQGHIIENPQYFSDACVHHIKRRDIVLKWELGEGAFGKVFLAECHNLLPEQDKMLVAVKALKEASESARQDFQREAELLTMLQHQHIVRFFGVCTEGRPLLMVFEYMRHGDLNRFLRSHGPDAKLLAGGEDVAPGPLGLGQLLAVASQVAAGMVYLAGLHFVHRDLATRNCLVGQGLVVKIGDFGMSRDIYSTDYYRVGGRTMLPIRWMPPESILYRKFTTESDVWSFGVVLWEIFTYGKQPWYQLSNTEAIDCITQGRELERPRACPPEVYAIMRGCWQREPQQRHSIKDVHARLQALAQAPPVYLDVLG

SMILES | IC50 [nM]
Cc1nn(-c2ccccc2)c(NC(=O)N[C@H]2CCCc3ccccc32)c1Br [Example 11, (S)-1-(4-bromo-3-methyl-1-phenyl-1H-pyrazol-5-yl)-3-(1,2,3,4-tetrahydronaphthalen-1-yl)urea] | < 100
Cc1c(-c2cnn(C)c2)nn(-c2ccccc2)c1NC(=O)NC1CC(C)Oc2ccc(F)cc21 (centres unmarked) [Example 14, 1-(1′,4-dimethyl-1-phenyl-1H,1′H-[3,4′-bipyrazol]-5-yl)-3-(6-fluoro-2-methylchroman-4-yl)urea] | 100 to 1000
Cc1c(-c2cnn(C)c2)nn(-c2ccccc2)c1NC(=O)NC1CCCc2ccc(Br)cc21 (centres unmarked) [Example 15, 1-(7-bromo-1,2,3,4-tetrahydronaphthalen-1-yl)-3-(1′,4-dimethyl-1-phenyl-1H,1′H-[3,4′-bipyrazol]-5-yl)urea] | < 100
Cc1c(-c2cnn(C)c2)nn(-c2ccccc2)c1NC(=O)NC1CCC(C)(C)c2ccc(Br)cc21 (centres unmarked) [Example 16, 1-(7-bromo-4,4-dimethyl-1,2,3,4-tetrahydronaphthalen-1-yl)-3-(1′,4-dimethyl-1-phenyl-1H,1′H-[3,4′-bipyrazol]-5-yl)urea] | < 100
COCCN1CCc2ccccc2C(NC(=O)Nc2c(C)c(-c3cnn(C)c3)nn2-c2ccccc2)C1 (centres unmarked) [Example 17, 1-(1′,4-dimethyl-1-phenyl-1H,1′H-3,4′-bipyrazol-5-yl)-3-(3-(2-methoxyethyl)-2,3,4,5-tetrahydro-1H-benzo[d]azepin-1-yl)urea] | 100 to 1000
Cc1c(-c2cnn(C)c2)nn(-c2ccccc2)c1NC(=O)NC1CN(CC(F)(F)F)CCc2ccccc21 (centres unmarked) [Example 18, 1-(1′,4-dimethyl-1-phenyl-1H,1′H-3,4′-bipyrazol-5-yl)-3-(3-(2,2,2-trifluoroethyl)-2,3,4,5-tetrahydro-1H-benzo[d]azepin-1-yl)urea] | 100 to 1000
CCN1Cc2ccccc2C(NC(=O)Nc2c3c(nn2-c2ccccc2)CCC3)C1 (centres unmarked) [Example 22, 1-(2-ethyl-1,2,3,4-tetrahydroisoquinolin-4-yl)-3-(2-phenyl-2,4,5,6-tetrahydrocyclopenta[c]pyrazol-3-yl)urea] | 100 to 1000
COCCN1Cc2ccccc2C(NC(=O)Nc2c3c(nn2-c2ccccc2)CCC3)C1 (centres unmarked) [Example 23, 1-(2-(2-methoxyethyl)-1,2,3,4-tetrahydroisoquinolin-4-yl)-3-(2-phenyl-2,4,5,6-tetrahydrocyclopenta[c]pyrazol-3-yl)urea] | 100 to 1000
CC(=O)N1Cc2ccccc2C(NC(=O)Nc2c3c(nn2-c2ccccc2)CCC3)C1 (centres unmarked) [Example 24, 1-(2-acetyl-1,2,3,4-tetrahydroisoquinolin-4-yl)-3-(2-phenyl-2,4,5,6-tetrahydrocyclopenta[c]pyrazol-3-yl)urea] | 100 to 1000
Cc1c(-c2cnn(C)c2)nn(-c2ccccc2)c1NC(=O)NC1CN(CC(F)(F)F)Cc2ccccc21 (centres unmarked) [Example 25, 1-(1′,4-dimethyl-1-phenyl-1H,1′H-3,4′-bipyrazol-5-yl)-3-(2-(2,2,2-trifluoroethyl)-1,2,3,4-tetrahydroisoquinolin-4-yl)urea] | < 100
Cc1c(-c2cn(C)cn2)nn(-c2ccccc2)c1NC(=O)NC1CN(CC(F)(F)F)Cc2ccccc21 (centres unmarked) [Example 27, 1-(4-methyl-3-(1-methyl-1H-imidazol-4-yl)-1-phenyl-1H-pyrazol-5-yl)-3-(2-(2,2,2-trifluoroethyl)-1,2,3,4-tetrahydroisoquinolin-4-yl)urea] | < 100
CNC(=O)c1nn(-c2ccccc2)c(NC(=O)NC2CN(CC(F)(F)F)Cc3ccccc32)c1C (centres unmarked) [Example 29, N,4-dimethyl-1-phenyl-5-(3-(2-(2,2,2-trifluoroethyl)-1,2,3,4-tetrahydroisoquinolin-4-yl)ureido)-1H-pyrazole-3-carboxamide] | < 100
Cc1c(NC(=O)NC2CN(CC(F)(F)F)Cc3ccccc32)n(-c2ccccc2)[nH]c1=O (centres unmarked) [Example 30, 1-(4-methyl-5-oxo-2-phenyl-2,5-dihydro-1H-pyrazol-3-yl)-3-(2-(2,2,2-trifluoroethyl)-1,2,3,4-tetrahydroisoquinolin-4-yl)urea] | < 100
Cc1c(-c2cnn(C)c2)nn(-c2ccccc2)c1NC(=O)NC1CC(C2CC2)Oc2ccc(Br)cc21 (centres unmarked) [Example 33, 1-(6-bromo-2-cyclopropylchroman-4-yl)-3-(1′,4-dimethyl-1-phenyl-1H,1′H-[3,4′-bipyrazo]-5-yl)urea] | < 100
Cc1c(-c2cnn(C)c2)nn(-c2ccccc2)c1NC(=O)NC1CC2(CCC2)Oc2ccc(Br)cc21 (centres unmarked) [Example 34, 1-(6-bromospiro[chroman-2,1′-cyclobutan]-4-yl)-3-(1′,4-dimethyl-1-phenyl-1H,1′H-[3,4′-bipyrazol]-5-yl)urea] | < 100
COCc1ccc2c(c1)C(NC(=O)Nc1c(C)c(-c3cnn(C)c3)nn1-c1ccccc1)CC1(CCC1)O2 (centres unmarked) [Example 35A, 1-(1′,4-dimethyl-1-phenyl-1H,1′H-[3,4′-bipyrazol]-5-yl)-3-(6-(methoxymethyl)spiro[chroman-2,1′-cyclobutan]-4-yl)urea] | < 100
Cc1c(-c2cnn(C)c2)nn(-c2ccccc2)c1NC(=O)Nc1cn(CC(F)(F)F)c(=O)c2ccccc12 [Example 38, 1-(1′,4-dimethyl-1-phenyl-1H,1′H-[3,4′-bipyrazol]-5-yl)-3-(1-oxo-2-(2,2,2-trifluoroethyl)-1,2-dihydroisoquinolin-4-yl)urea] | 100 to 1000

The remaining lines, values ahead:

IC50 [nM] | SMILES
100 to 1000 | COc1ccc2c(c1)CCCC2NC(=O)Nc1c(C)c(-c2cnn(C)c2)nn1-c1ccccc1 (centres unmarked) [Example 5, 1-(1′,4-dimethyl-1-phenyl-1H,1′H-3,4′-bipyrazol-5-yl)-3-(6-methoxy-1,2,3,4-tetrahydronaphthalen-1-yl)urea]
< 100 | Cc1c(-c2cnn(C)c2)nn(-c2ccccc2)c1NC(=O)NC1CCCCc2ccccc21 (centres unmarked) [Example 6, 1-(1′,4-dimethyl-1-phenyl-1H,1′H-3,4′-bipyrazol-5-yl)-3-(6,7,8,9-tetrahydro-5H-benzo[7]annulen-5-yl)urea]
100 to 1000 | Cc1c(-c2cnn(C)c2)nn(-c2ccccc2)c1NC(=O)NC1CCOc2ccccc21 (centres unmarked) [Example 7, 1-(chroman-4-yl)-3-(1′,4-dimethyl-1-phenyl-1H,1′H-3,4′-bipyrazol-5-yl)urea]
100 to 1000 | Cc1c(-c2cnn(C)c2)nn(-c2ccccc2)c1NC(=O)NC1COCc2ccccc21 (centres unmarked) [Example 8, 1-(1′,4-dimethyl-1-phenyl-1H,1′H-3,4′-bipyrazol-5-yl)-3-(isochroman-4-yl)urea]
100 to 1000 | Cc1c(-c2cnn(C)c2)nn(-c2ccccc2)c1NC(=O)NC1CC(C)(C)Oc2ccccc21 (centres unmarked) [Example 9, 1-(1′,4-dimethyl-1-phenyl-1H,1′H-3,4′-bipyrazol-5-yl)-3-(2,2-dimethylchroman-4-yl)urea]
< 100 | Cc1c(-c2cnn(C)c2)nn(-c2ccccc2)c1NC(=O)NC1COCc2ccc(Br)cc21 (centres unmarked) [Example 10, 1-(6-bromoisochroman-4-yl)-3-(1′,4-dimethyl-1-phenyl-1H,1′H-[3,4′-bipyrazol]-5-yl)urea]
100 to 1000 | CCOc1nn(-c2ccccc2)c(NC(=O)NC2CCOc3cc(F)ccc32)c1C (centres unmarked) [Example 13, 1-(3-ethoxy-4-methyl-1-phenyl-1H-pyrazol-5-yl)-3-(7-fluorochroman-4-yl)urea]
100 to 1000 | CC(=O)N1CCc2ccccc2C(NC(=O)Nc2c(C)c(-c3cnn(C)c3)nn2-c2ccccc2)C1 (centres unmarked) [Example 19, 1-(3-acetyl-2,3,4,5-tetrahydro-1H-benzo[d]azepin-1-yl)-3-(1′,4-dimethyl-1-phenyl-1H,1′H-3,4′-bipyrazol-5-yl)urea]
100 to 1000 | CCC(=O)N1CCc2ccccc2C(NC(=O)Nc2c(C)c(-c3cnn(C)c3)nn2-c2ccccc2)C1 (centres unmarked) [Example 20, 1-(1′,4-dimethyl-1-phenyl-1H,1′H-3,4′-bipyrazol-5-yl)-3-(3-propionyl-2,3,4,5-tetrahydro-1H-benzo[d]azepin-1-yl)urea]
100 to 1000 | CCCN1CCc2ccccc2C(NC(=O)Nc2c(C)c(-c3cnn(C)c3)nn2-c2ccccc2)C1 (centres unmarked) [Example 21]
< 100 | O=C(Nc1c2c(nn1-c1ccccc1)CCC2)NC1CN(CC(F)(F)F)Cc2ccccc21 (centres unmarked) [Example 28, 1-(2-phenyl-2,4,5,6-tetrahydrocyclopenta[c]pyrazol-3-yl)-3-(2-(2,2,2-trifluoroethyl)-1,2,3,4-tetrahydroisoquinolin-4-yl)urea]
< 100 | Cc1nn(-c2ccccc2)c(NC(=O)NC2CN(CC(F)(F)F)Cc3ccccc32)c1C(N)=O (centres unmarked) [Example 31, 3-methyl-1-phenyl-5-(3-(2-(2,2,2-trifluoroethyl)-1,2,3,4-tetrahydroisoquinolin-4-yl)ureido)-1H-pyrazole-4-carboxamide]
100 to 1000 | Cc1c(-c2cnn(C)c2)nn(-c2ccccc2)c1NC(=O)NC1CC2(CCC2)Oc2ccccc21 (centres unmarked) [Example 35B, 1-(1′,4-dimethyl-1-phenyl-1H,1′H-[3,4′-bipyrazol]-5-yl)-3-(spiro[chroman-2,1′-cyclobutan]-4-yl)urea]
100 to 1000 | Cc1c(-c2cnn(C)c2)nn(-c2ccccc2)c1NC(=O)NC1CCC(=O)c2ccccc21 (centres unmarked) [Example 36, 1-(1′,4-dimethyl-1-phenyl-1H,1′H-[3,4′-bipyrazol]-5-yl)-3-(4-oxo-1,2,3,4-tetrahydronaphthalen-1-yl)urea]
100 to 1000 | Cc1c(-c2cnn(C)c2)nn(-c2ccccc2)c1NC(=O)NC1CCC(C)(O)c2ccccc21 (centres unmarked) [Example 37, 1-(1′,4-dimethyl-1-phenyl-1H,1′H-[3,4′-bipyrazol]-5-yl)-3-(4-hydroxy-4-methyl-1,2,3,4-tetrahydronaphthalen-1-yl)urea]
